Experimental data: paper PMC9675574 (JCI Insight, 2022)
Like-named read-outs stand apart in the source and are kept apart here.

Assays:
[1] = system: cerulein-induced pancreatitis in T7K24R mice; assay: Cerulein-induced pancreatitis in T7K24R mice; type: in vivo, mouse; details: single oral gavage 200 mg/kg; 15 treated mice
Experimental: Pancreatitis was induced in T7K24R mice with 8 hourly intraperitoneal injections of the secretagogue peptide cerulein used in a dose of 50 μg/kg. Cerulein (catalog number C9026, MilliporeSigma) was dissolved in sterile normal saline at 10 μg/mL concentration. Mice were sacrificed 1, 24, 48, 72, or 96 hours from the first cerulein injection, as indicated, and the pancreas and blood were harvested. Details of histological analysis and measurement of plasma amylase (4 μL assayed) were reported previously ([29]–[31]).
Control mice were given gavage of the vehicle solution (Captisol; see below) or regular chow.
Captisol (β-cyclodextrin sulfobutyl ethers, sodium salts, lot number NC-04A-180185) was obtained from Cydex Pharmaceuticals (through Thermo Fisher Scientific) and was dissolved in sterile normal saline (3.5 g in 10 mL). […] The mixture was then compressed into pellets using the barrel of a 10 mL plastic syringe and a plunger. The prodrug-containing pellets were allowed to dry at 24°C for 2 days and stored at 4°C until use.

[2] = human volunteers, cited from earlier work

## [H]/N=C(/N)c1ccc(NCc2nc3cc(C(=O)N(CCC(=O)O)c4ccccn4)ccc3n2C)cc1 [dabigatran]
[1]
  share of mice with limited efficacy (less than 25% of normal acini preserved): 30%
[2]; 100 mg dabigatran etexilate 3 times daily
  steady-state plasma levels of dabigatran: around 50 ng/mL
[2]; 200 mg dabigatran etexilate 3 times daily
  steady-state plasma levels of dabigatran: ~100 ng/mL
